For one test, the system named is P. falciparum K1. The test is described as follows: Anti-malarial in vitro efficacy, assay 1, P. falciparum K1. It is filed as cell-based. The note with it: Plasmodium falciparum, strain K1. Here is the method: (§1) The ability of aminopyrazine derivatives according to the invention to kill P. falciparum parasites and/or to inhibit its proliferation is tested as follows:
(§2) The protocol used was as described in the supplemental material to Fiddock et al., 2004, Nature Reviews Drug Discovery, (3), p 509.
(§3) EC50s (ng/ml) are reported in Table 3 below against different strains of P. falciparum K1, NF54 (assay 1).

A further test has as its system P. falciparum NF54. Briefly: Anti-malarial in vitro efficacy, assay 1, P. falciparum NF54. To be noted: Plasmodium falciparum, strain NF54. It is filed as cell-based. Here is the method: as §1, §2, §3
The subject of the next test is parasitemia. Briefly: Anti-malarial in vivo efficacy, inhibition of parasitemia after 4 daily oral doses. The note with it: for inhibition in vivo at 3 mg/kg: read-out: percentages of inhibition of parasitemia, 3 mg/kg po; for inhibition in vivo at 10 mg/kg: read-out: percentages of inhibition of parasitemia, 10 mg/kg po. From the text: The ability of aminopyrazine derivatives according to the invention to show antimalarial efficacy in vivo can be tested by using the protocols described in the supplemental material to Fidock et al., 2004, Nature Reviews Drug Discovery, (3), p 509.

Each structure is given as a SMILES string. ≈ marks a conversion by molar mass, not a printed value.

By EC50 is commonly meant the midpoint of the concentration-response curve. On to `Nc1ncc(-c2ccc(C(=O)N3CCNCC3)cc2)nc1-c1ccc(C(F)(F)F)cc1` [Compound 8, (4-(5-amino-6-(4-(trifluoromethyl)phenyl)pyrazin-2-yl)phenyl)(piperazin-1-yl)methanone], for which, in the test with P. falciparum K1, the EC50 is 2.1 ng/mL (≈ 4.91 nM). This compound had an EC50 in the test on P. falciparum NF54 of 2.3 ng/mL (≈ 5.38 nM). Also, in the test on parasitemia, the inhibition in vivo at 3 mg/kg amounted to 99.9% and the inhibition in vivo at 10 mg/kg stood at 99.9%.
For the compound `CN1CCCN(C(=O)c2ccc(-c3cnc(N)c(-c4ccc(C(F)(F)F)nc4)n3)cc2)CC1` [Compound 12, (4-(5-amino-6-(6-(trifluoromethyl)pyridin-3-yl)pyrazin-2-yl)phenyl)(4-methyl-1,4-diazepan-1-yl)methanone], the EC50 turned out to be 4.5 ng/mL (≈ 9.86 nM) in the test on P. falciparum K1 and 6.9 ng/mL (≈ 15.1 nM) in the test with P. falciparum NF54. The inhibition in vivo at 3 mg/kg in the test on parasitemia stood at 99.9%.
In the case of `NC(=O)c1ccc(-c2cnc(N)c(-c3ccc(C(F)(F)F)c(F)c3)n2)cc1` [Compound 13, 4-(5-amino-6-(3-fluoro-4-(trifluoro-methyl)phenyl)pyrazin-2-yl) benzamide], the EC50 in the test with P. falciparum K1 and in the test with P. falciparum NF54 was 18 ng/mL (≈ 47.8 nM) in each case. Also, in the test on parasitemia, the inhibition in vivo at 3 mg/kg worked out at 99.9%. In addition, the inhibition in vivo at 10 mg/kg in the test on parasitemia was 99.9%.
As for `Nc1ncc(-c2ccc(C(=O)N3CCC(O)C3)cc2)nc1-c1ccc(C(F)(F)F)cc1` (centres unmarked) [Compound 21, (4-(5-amino-6-(4-(trifluoromethyl)phenyl)pyrazin-2-yl)phenyl)(3-hydroxypyrrolidin-1-yl)methanone], the EC50 in the test with P. falciparum K1 was found to be 2.9 ng/mL (≈ 6.77 nM); in the test with P. falciparum NF54 it was 4.1 ng/mL (≈ 9.57 nM). In addition, the inhibition in vivo at 3 mg/kg with parasitemia was 99.6%.
The corresponding values for `Nc1ncc(-c2ccc(C(=O)N3CCC(O)CC3)cc2)nc1-c1ccc(C(F)(F)F)cc1` [Compound 23, (4-(5-amino-6-(4-(trifluoromethyl)phenyl)pyrazin-2-yl)phenyl)(4-hydroxypiperidin-1-yl)methanone] are 2.2 ng/mL (≈ 4.97 nM), 2.4 ng/mL (≈ 5.42 nM) and 98.7%.
For `CC(C)(C)N1CCN(C(=O)c2ccc(-c3cnc(N)c(-c4ccc(C(F)(F)F)nc4)n3)cc2)CC1` [Compound 24, (4-(5-amino-6-(6-(trifluoromethyl)pyridin-3-yl)pyrazin-2-yl)phenyl)(4-(tert-butyl)piperazin-1-yl)methanone], the EC50 was 3.1 ng/mL (≈ 6.4 nM) in the test with P. falciparum K1 and 4.3 ng/mL (≈ 8.87 nM) with P. falciparum NF54. Moreover, in the test on parasitemia, the inhibition in vivo at 3 mg/kg came to 87.6%.
On the same counts, the results for `CN1CCCN(C(=O)c2ccc(-c3cnc(N)c(-c4ccc(C(F)(F)F)cc4)n3)cc2)CC1` [Compound 25, (4-(5-amino-6-(4-(trifluoromethyl)phenyl)pyrazin-2-yl)phenyl)(4-methyl-1,4-diazepan-1-yl)methanone] are 2.6 ng/mL (≈ 5.71 nM), 3.1 ng/mL (≈ 6.81 nM) and 90%.
On the same counts, the results for `Nc1ncc(-c2ccc(C(=O)N3CCCNCC3)cc2)nc1-c1ccc(C(F)(F)F)cc1` [Compound 27, (4-(5-amino-6-(4-(trifluoromethyl)phenyl)pyrazin-2-yl)phenyl)(1,4-diazepan-1-yl)methanone] are 2.2 ng/mL (≈ 4.98 nM), 3.2 ng/mL (≈ 7.25 nM) and 88%.

The record behind these values is patent US9266842B2, “Anti-malarial agents” (UNIVERSITY OF CAPE TOWN, priority 2012, dated 2016).
